Reference: US20210137941A1 (ZARODEX THERAPEUTICS LIMITED, priority 2018, published 2021)

Experiments:
[1] = system: collagen-induced arthritis (CIA); assay: Mouse collagen-induced arthritis (CIA) model: onset, incidence, clinical score, paw swelling; assay type: in vivo, DBA/1 mice
Procedure: Adult (age 13-15 weeks) DBA/1 male mice were purchased from Envigo (Horst, Netherlands). Mice were housed at a 21° C.±2° C. in individually ventilated cages with free access to food and water and a 12-h light/dark cycle (7 am/7 pm). Mice were acclimatised for 1 week on arrival prior to initiating experiments.
(§1) All experiments were approved by the Clinical Medicine Animal Welfare and Ethical Review Body (AWERB) and by the UK Home Office.
DBA/1 mice were immunised with bovine type II collagen in CFA and monitored daily for onset of arthritis. […] Controls received vehicle (saline) alone. Treatment of mice commenced in one experiment on day 1 after immunisation and in a second experiment on day 15 after immunisation. Clinical scores and paw-swelling were monitored for 10 days following onset of arthritis. A clinical scoring system was used as follows. Arthritis severity was scored by an experienced, non-blinded investigator as follows: 0=normal, 1=slight swelling and/or erythema, 2=pronounced swelling, 3=ankylosis. All four limbs were scored, giving a maximum possible score of 12 per animal.
(§2) Data were analyzed by one-way ANOVA with Tukey's or Dunnett's multiple comparison test or two-way ANOVA with Tukey's multiple comparison test as appropriate. All calculations were made using GraphPad Prism software. A P value less than 0.05 was considered significant.

[2] = system: B220+ B cells, plasma cells, germinal centre B cells; assay: CIA model: B cell subsets in spleen and lymph nodes by FACS; assay type: in vivo, DBA/1 mice
Procedure: as §1
(§3) At the end of the experimental period, mice were humanely euthanised and bled by cardiac puncture to obtain blood samples for serum separation, storage at −80° C. and subsequent measurement of specific anti-collagen immunoglobulin (IgG1 and IgG2a isotypes) by ELISA. In parallel, spleen and inguinal lymph nodes were harvested for evaluation of cellular composition across these compartments using multi-laser flow cytometric detection and analysis. Numbers of B cell subsets in spleen and lymph nodes were determined by FACS.
as §2

[3] = system: anti-collagen IgG1 and IgG2a; assay: CIA model: serum anti-collagen immunoglobulin by ELISA; assay type: in vivo, DBA/1 mice; details: FIG. 33
Procedure: as §1, §3, §2

[4] = system: T follicular helper cells (CD4+ PD1+ CXCR5+); assay: CIA model: T follicular helper cells in spleen and lymph node by FACS; assay type: in vivo, DBA/1 mice
Procedure: as §1, §3, §2

[5] = system: serum/plasma IgG, IgA, IgM; details: cited from earlier work
[6] = outpatients on clozapine at least five years (Lozano et al., 2016)
[7] = six weeks clozapine treatment (Hinze-Selch et al., 1998)

CN1CCN(C2=Nc3cc(Cl)ccc3Nc3ccccc32)CC1 [Clozapine, clozapine]
swelling of the first affected paw ([1]; 10 mg/kg from day 1, FIG. 27): reduced swelling of the first affected paw
onset of arthritis post-immunisation ([1]; 5 or 10 mg/kg IP daily from day 1 or day 15, FIG. 25, 26): significantly effective
incidence of CIA ([1]; FIG. 26): reduces the incidence
onset of arthritis, treatment from day 1 ([1]; both doses (5, 10 mg/kg) from day 1, FIG. 25, 26): extremely effective
overall clinical score ([1]; both doses, administered from day 1, FIG. 27): reduced overall clinical score
total number of affected paws compared to vehicle control ([1]; significant with dosing at D1, FIG. 28): reduced the total number of affected paws
proportion of B220+ B cells in spleen ([2]; 10 mg/kg from day 1, FIG. 29): significantly reduced
proportion of plasma cells in spleen ([2]; 10 mg/kg given on day 1, FIG. 30): significant reduction
plasma cell numbers in lymph node ([2]; FIG. 30): no significant effect
level of GL7 expression on follicular B cells in lymph node ([2]; all clozapine treatment groups vs vehicle, FIG. 32): significantly decreased
percentage of B220+ B cells in lymph nodes ([2]; all doses and time points (5 or 10 mg/kg from day 1 or day 15), FIG. 29): significantly lower percentage
lymph node follicular B cells (B220+IgD-Fas+GL7hi) ([2]; all doses/both time points, FIG. 31): Strikingly significant reductions
serum anti-type II collagen IgG1 reduction ([3]; 10 mg/kg from day 15): reaching statistical significance
serum anti-type II collagen IgG2a ([3]; 5 or 10 mg/kg from day 1 or day 15, single time point): no significant impact
serum anti-type II collagen IgG1 ([3]; across all doses tested): nominal reductions
proportions of CD4+PD1+CXCR5+ T follicular helper cells in lymph node or spleen ([4]; 5 or 10 mg/kg from day 1 or day 15, FIG. 34): did not significantly affect
expression of PD-1 (MFI) in lymph node T follicular helper cells ([4]; all doses and time points, FIG. 35): Reduced expression
CXCR5 expression (MFI) on T follicular helper cells ([4]; dosed from day 1, lymph node and spleen, FIG. 36): significant reductions
expression of CCR7 on germinal centre resident T follicular helper cells ([4]; lymph node and spleen, FIG. 37): reduction in expression
admitted to hospital with infection (clozapine group (vs 0.06 controls)): 0.12 per patient year
Admission frequency in 12-month period, infection-related: admissions (clozapine-treated patients): 15
Admission frequency in 12-month period, infection-related: patients (clozapine-treated patients): 10 patients
IgA, IgG, absolute neutrophil count and white blood cell count vs control group [5, 6]: no differences were found
mean plasma levels of IgM vs control group [5, 6]: overall decrease
IgA or IgM concentrations [5, 7]: no significant effect
serum concentrations of IgG [5, 7]: significant increases
